From the supplement of paper PMC10307832

Columns and labels:
Assay in all cases: relative viability (nuclei count vs DMSO), 5 days (fraction); higher = more cells survive
[1] = compound: CC1CC(=O)N(C2=CN=C(N=C2N1C3CCCC3)NC4=C(C=C(C=C4)C(=O)NC5CCN(CC5)C)OC)C [NPK76-II-72-1] + CC(=O)Nc1cccc(-n2c(=O)n(C3CC3)c(=O)c3c(Nc4ccc(I)cc4F)n(C)c(=O)c(C)c32)c1 [Trametinib] (partner 0.02 µM)
Method in brief: (§1)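 Lung cancer cell lines were seeded in 1536-well plates and dosed by pin tool the next day, with either a single drug or a fixed anchor-drug dose combined with five library-drug doses (not always all listed) spaced in √10 steps. Five days later, one step fixed the cells and stained their nuclei (final 0.05% Triton X-100, 1% formaldehyde, 1 ug/ml Hoechst), and nuclei were counted on 4× images. Relative viability is the nuclei count in treated wells divided by the count in vehicle wells, and each value is the median of duplicate plates.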

[2] = compound: CC1CC(=O)N(C2=CN=C(N=C2N1C3CCCC3)NC4=C(C=C(C=C4)C(=O)NC5CCN(CC5)C)OC)C [NPK76-II-72-1] + N=C(N)NC(=N)NCCc1ccccc1 [Phenformin] (partner 250 µM)
Method in brief: as §1

[3] = compound: CC1CC(=O)N(C2=CN=C(N=C2N1C3CCCC3)NC4=C(C=C(C=C4)C(=O)NC5CCN(CC5)C)OC)C [NPK76-II-72-1] + Nc1ncn([C@H]2C[C@H](O)[C@@H](CO)O2)c(=O)n1 [Decitabine] (partner 2 µM)
Method in brief: as §1

BI-2536 + Navitoclax = compound: CC[C@@H]1C(=O)N(C)c2cnc(Nc3ccc(C(=O)NC4CCN(C)CC4)cc3OC)nc2N1C1CCCC1 [BI-2536] + CC1(C)CCC(c2ccc(Cl)cc2)=C(CN2CCN(c3ccc(C(=O)NS(=O)(=O)c4ccc(N[C@H](CCN5CCOCC5)CSc5ccccc5)c(S(=O)(=O)C(F)(F)F)c4)cc3)CC2)C1 [Navitoclax] (partner 0.5 µM)
Method in brief: as §1

Cell Line	relative viability ([1]; first compound 0.01 µM)	relative viability ([1]; first compound 0.03162 µM)	relative viability ([1]; first compound 0.1 µM)	relative viability ([1]; first compound 0.3162 µM)	relative viability ([1]; first compound 1 µM)	relative viability ([2]; first compound 0.01 µM)	relative viability ([2]; first compound 0.03162 µM)	relative viability ([2]; first compound 0.1 µM)	relative viability ([2]; first compound 0.3162 µM)	relative viability ([2]; first compound 1 µM)	relative viability ([3]; first compound 0.01 µM)	relative viability ([3]; first compound 0.03162 µM)	relative viability ([3]; first compound 0.1 µM)	relative viability ([3]; first compound 0.3162 µM)	relative viability ([3]; first compound 1 µM)	relative viability (BI-2536 + Navitoclax; first compound 0.01 µM)	relative viability (BI-2536 + Navitoclax; first compound 0.03162 µM)	relative viability (BI-2536 + Navitoclax; first compound 0.1 µM)	relative viability (BI-2536 + Navitoclax; first compound 0.3162 µM)	relative viability (BI-2536 + Navitoclax; first compound 1 µM)
NCI-H2170	0.884	0.934	0.93	0.654	0.892	0.412	0.432	0.402	0.404	0.461	0.442	0.447	0.455	0.42	0.511	0.614	0.561	0.367	0.167	0.187
NCI-H2347	0.353	0.283	0.296	0.302	0.26	0.413	0.432	0.514	0.521	0.395	0.607	0.578	0.614	0.562	0.635	0.759	0.742	0.744	0.358	0.326
NCI-H1993	0.551	0.549	0.624	0.57	0.482	0.55	0.49	0.515	0.553	0.521	0.604	0.624	0.61	0.474	0.678	0.984	0.926	0.492	0.553	0.549
NCI-H322M	0.531	0.492	0.472	0.483	0.557	0.706	0.935	0.778	0.817	0.829	0.675	0.711	0.714	0.743	0.77	1.3	1.29	1.2	0.608	0.333
NCI-H838	0.485	0.575	0.513	0.523	0.578	0.532	0.585	0.657	0.629	0.556	0.495	0.458	0.455	0.466	0.476	1.11	1.2	0.634	0.164	0.146
HARA	0.83	0.864	0.619		0.856	0.419	0.408	0.486	0.434	0.509	0.643	0.57	0.616		0.451	1.15	1.17	0.98	0.103	0.0669
NCI-H2087	0.219	0.203	0.201	0.179	0.244	0.42	0.543	0.397	0.398	0.498	0.226	0.33	0.3	0.217	0.36	0.868	0.974	0.8	0.112	0.138
NCI-H1437	0.492	0.533	0.557	0.53	0.616	0.312	0.288	0.297	0.293	0.333	0.579	0.523	0.531	0.558	0.641	1.08	1.08	0.714	0.145	0.142
NCI-H1792		0.469	0.478	0.378	0.506	0.289	0.367	0.16	0.287	0.422		0.683	0.42	0.534	0.515	0.624	0.589	0.559	0.171	0.0662
ChaGo-K-1	0.876	0.98	0.868	0.897	0.875	0.472	0.575	0.544	0.476	0.478	0.487	0.52	0.475	0.512	0.501	0.939	0.691	0.461	0.311	0.346
COR-L23	0.588	0.679	0.671	0.497	0.65	0.397	0.453	0.491	0.434	0.438	0.423	0.473	0.469	0.384	0.454	0.883	0.792	0.358	0.0817	0.0706
COR-L 105	0.43	0.456	0.491	0.424	0.435	0.491	0.541	0.409	0.474	0.551	0.622	0.65	0.448	0.616	0.69	0.671	0.757	0.491	0.311	0.271
LK-2	0.767	0.65	0.584	0.609	0.69	0.379	0.583	0.504	0.206	0.561	0.379	0.246	0.265	0.201	0.407	0.798	0.553	0.387	0.118	0.172
201T	0.716	0.701	0.709	0.689	0.716	0.423	0.461	0.407	0.461	0.433	0.818	0.87	0.906	0.887	0.886	1.18	1.16	1.21	0.939	0.33
HCC-44	1.06	1.27	0.95	0.992	0.988	0.201	0.176	0.22	0.212	0.271	0.991	1.08	0.931	0.922	0.968	0.956	1.02	0.849	0.0892	0.095
NCI-H596	0.764	0.787	0.776	0.82	0.803	0.649	0.777	0.789	0.782	0.774	1.02	1.19	1.01	1	1.01	0.997	1.21	0.978	0.19	0.184
H3255	0.675	0.603	0.637		0.587	0.365	0.326	0.376	0.31	0.37	0.622	0.58	0.614		0.688	0.292	0.359	0.196	0.113	0.119
NCI-H647	0.443	0.436	0.418	0.527	0.54	0.46	0.676	0.629	0.623	0.533	0.379	0.364	0.418	0.367	0.454	1.05	0.883	0.378	0.0407	0.0778
NCI-H2023	0.584	0.645	0.677	0.556	0.512	0.43	0.422	0.455	0.398	0.43	0.203	0.218	0.225	0.215	0.227	0.984	0.92	0.723	0.0972	0.0716
NCI-H23	0.361	0.424	0.271	0.342	0.38	0.752	0.788	0.684	0.718	0.85	0.31	0.315	0.264	0.405	0.306	0.894	0.632	0.567	0.192	0.127
NCI-H1944	0.372	0.413	0.423	0.351	0.408	0.197	0.197	0.198	0.187	0.211	0.431	0.463	0.408	0.408	0.478	1.05	1.05	1.05	0.377	0.157
NCI-H1793		0.389	0.408	0.511	0.401	0.3	0.387	0.38	0.31	0.432		0.542	0.547	0.409	0.575	0.438	0.34	0.275	0.218	0.159
NCI-H520	0.646	0.687	0.676	0.688	0.769	0.526	0.632	0.46	0.519	0.598	0.455	0.575	0.589	0.496	0.586	1.02	1.03	0.366	0.222	0.2
NCI-H460	0.271	0.14	0.141	0.123	0.174	0.501	0.512	0.582	0.522	0.522	0.432	0.492	0.521	0.455	0.47	1.19	1.05	0.0795	0.0095	0.0103
EKVX	0.359	0.32	0.367		0.384	0.221	0.237	0.225	0.147	0.252	0.329	0.353	0.34		0.387	0.786	0.874	1.02	0.15	0.114
EPLC-272H	0.257	0.246	0.252	0.296	0.284	0.304		0.259	0.229	0.343	0.407	0.387	0.371	0.379	0.37	1.13	0.999		0.0617	0.0715
NCI-H1395	1.09	1.01	1	1.07	1.06	0.466	0.422	0.457	0.429	0.405	0.758	0.619	0.628	0.693	0.753	1.01	0.635	0.732	0.42	0.467
